Laboratory results published in US20110301142A1, “ANTAGONISTS OF LYSOPHOSPHATIDIC ACID RECEPTORS” (priority 2008, published 2011).

Columns and labels:
human LPA1 = target: T1, human LPA1 (Homo sapiens, UniProt Q92633); assay: LPA1 calcium flux assay (HLPA1 Ca Flux); assay type: cell-based; details: Human LPA1 expressing CHO cells, stimulated with 10 nM LPA
T1 construct: the full-length cDNA for human LPA1 was obtained by PCR of the reverse transcription reaction; expressed in transfected cells
Outline: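 Compounds were fitted for IC50 from inhibition of the intracellular calcium rise evoked by 10 nM LPA. Test system: dye-loaded CHO cells stably transfected with human LPA1, serum-free overnight, with 30 min compound pretreatment at room temperature before stimulation.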

human LPA3 = target: T2, human LPA3 (Homo sapiens, UniProt Q9UBY5); assay: LPA3 calcium flux assay; assay type: cell-based; details: Human LPA3 expressing CHO cells, stimulated with 10 nM LPA; read-out: HLPA3 Ca Flux IC50
T2 construct: The full-length cDNA fragment for human LPA3 was obtained by PCR from the vector; expressed in transfected cells; cDNA from the Missouri S&T cDNA Resource Center
T2 sequence (Q9UBY5 1-353): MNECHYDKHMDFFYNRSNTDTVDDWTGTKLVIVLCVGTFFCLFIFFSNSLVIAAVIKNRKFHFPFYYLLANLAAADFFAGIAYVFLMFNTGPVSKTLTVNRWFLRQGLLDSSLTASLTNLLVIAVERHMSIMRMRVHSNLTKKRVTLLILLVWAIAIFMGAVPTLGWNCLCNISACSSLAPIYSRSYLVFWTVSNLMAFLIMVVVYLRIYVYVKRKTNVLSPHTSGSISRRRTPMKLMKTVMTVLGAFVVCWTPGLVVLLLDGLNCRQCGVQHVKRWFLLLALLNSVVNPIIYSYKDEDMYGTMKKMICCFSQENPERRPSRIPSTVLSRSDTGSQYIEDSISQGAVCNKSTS
Outline: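 Stably transfected CHO cells, serum-starved overnight, loaded with Calcium 4 dye 1 h at 37 °C in HBSS/20 mM Hepes with 0.3% fatty-acid-free HSA. Compounds preincubated 30 min at room temperature, then cells stimulated with 10 nM LPA; intracellular Ca2+ read by fluorescence; IC50 from titration curves.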

Female C57BL/6 mice [1] = assay: Mouse carbon tetrachloride (CCl4)-induced liver fibrosis model; assay type: in vivo; details: for collagen deposition in the liver as compared to the untreated group: CCl4-induced liver fibrosis
Method: Female C57BL/6 mice (Harlan, 20-25 g) housed 4/cage are given free access to food and water and allowed to acclimate for at least 7 days prior to test initiation. After the habituation phase, mice receive CCl4 (0.5-1.0 ml/kg body weight) diluted in corn oil vehicle (100 μL volume) via i.p. injection twice a week for 4-6 weeks. (Higazi, A. A. et al., Clin Exp Immunol. 2008 April; 152(1):163-73. Epub 2008 Feb. 14.). Control mice receive an equivalent volume of corn oil vehicle only. Test compound or vehicle is delivered po, ip or sc daily. At the end of the study (4-6 weeks after first i.p. injection of CCl4), mice are sacrificed using inhaled isoflurane and blood is drawn via cardiac puncture for subsequent analysis of ALT/AST levels. The liver is harvested, and one half of the liver is frozen at −80° C. and the other half is fixed in 10% neutral buffered formalin for histological assessment of liver fibrosis using light microscopy (10× magnification). Liver tissue homogenates are analyzed for collagen levels using Sircol (Biocolor Ltd, UK). Fixed Liver tissue is stained using hematoxylin and eosin (H&E) and trichrome and liver fibrosis is determined by quantitative, computer-assisted densitometry of collagen in liver tissue sections using light microscopy. Plasma and liver tissue lysates are also analyzed for concentrations of inflammatory, pro-fibrotic and tissue injury biomarkers including transforming growth factor β1, hyaluronic acid, tissue inhibitor of metalloproteinase-1, matrix matelloproteinase-7, connective tissue growth factor and lactate dehydrogenase activity, using commercially available ELISA. The resulting data are plotted using Graphpad prism and statistical differences between groups determined.

Female C57BL/6 mice [2] = assay: Mouse unilateral ureteral obstruction kidney fibrosis model; assay type: in vivo
Method: Female C57BL/6 mice (Harlan, 20-25 g) housed 4/cage will be given free access to food and water and allowed to acclimate for at least 7 days prior to test initiation. After the habituation phase, mice undergo unilateral ureteral obstruction (UUO) surgery or sham to left kidney. Briefly, a longitudinal, upper left incision is performed to expose the left kidney. The renal artery is located and 6/0 silk thread is passed between the artery and the ureter. The thread is looped around the ureter and knotted 3 times insuring full ligation of ureter. The kidney is returned to abdomen, the abdominal muscle is sutured and the skin is stapled closed. Mice are returned to their cages and monitored daily for the duration of the experiment. Test compound or vehicle is delivered po, ip or sc daily. The route and frequency of dosing is based on previously determined pharmacokinetic properties. All animals are sacrificed using inhaled isoflurane 4, 8 or 14 days after UUO surgery. […] Kidney tissue homogenates are analyzed for collagen levels using Sircol (Biocolor Ltd, UK). Fixed kidney tissue is also stained using hematoxylin and eosin (H&E) and trichrome and kidney fibrosis is determined by quantitative, computer-assisted densitometry of collagen in […] tissue sections using light microscopy. […] The resulting data are plotted using Graphpad prism and statistical differences between groups determined.

T1 sequence (Q92633 whole entry): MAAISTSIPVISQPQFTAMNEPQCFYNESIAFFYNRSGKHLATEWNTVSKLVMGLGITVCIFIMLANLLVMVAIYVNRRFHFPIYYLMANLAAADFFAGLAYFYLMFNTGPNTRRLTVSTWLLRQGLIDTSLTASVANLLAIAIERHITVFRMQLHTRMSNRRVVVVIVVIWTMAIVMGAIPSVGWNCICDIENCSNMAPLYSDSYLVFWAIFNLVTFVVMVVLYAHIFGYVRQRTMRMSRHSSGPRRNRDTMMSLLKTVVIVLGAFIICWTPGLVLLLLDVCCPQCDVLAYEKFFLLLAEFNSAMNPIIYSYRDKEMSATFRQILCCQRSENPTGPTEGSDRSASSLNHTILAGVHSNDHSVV

Structure (SMILES) | IC50 (human LPA1) | IC50 (human LPA3) | collagen deposition in the liver as compared to the untreated group (Female C57BL/6 mice [1]) | reduction of kidney fibrosis as compared to the untreated group (Female C57BL/6 mice [2]) | effect on collagen deposition compared to pirfenidone (Female C57BL/6 mice [1]; 30 mg/kg, po, qd)
Cc1noc(-c2ccc(-c3ccc(CC(=O)O)cc3)cc2)c1NC(=O)O[C@H](C)c1ccccc1 [Compound 1-115] | < 300 nM | 1000 to 50000 nM | significantly reduced | 55% | 
Cc1noc(-c2ccc(-c3ccc(CC(=O)O)cc3)cc2)c1NC(=O)O[C@H](C)c1ccccc1Cl [Compound 1-88, (4′-{4-[(R)-1-(2-Chloro-phenyl)-ethoxycarbonylamino]-3-methyl-isoxazol-5-yl}-biphenyl-4-yl)-acetic acid] | < 300 nM | 1000 to 50000 nM | significantly reduced | at least 20% | same effect on collagen deposition as pirfenidone
